Entries after “also recorded” stand apart in the source; their conditions may differ.
How the values were obtained:
EW8 cells = test: DOXO response of Ewing sarcoma cell line; type: cell-based; settings: high-NEU1 cells
Description: (§1) We, therefore, characterized other tumor cell lines, in terms of their invasive potential and NEU1 status. We chose the Ewing sarcoma cell lines, EW8 and SKNEP1, for their divergent NEU1 levels. Similar to the RMS cell lines, the low-NEU1 SKNEP1 cells accumulated oversialylated LAMP1, were resistant to DOXO, and more successfully invaded matrigel and peritoneal basement membranes than did the high-NEU1 DOXO-sensitive EW8 cells (data not shown). We also analyzed the colon carcinoma cell lines, SW480 and SW620, because of their well-characterized derivation (Leibovitz et al., 1976): SW480 cells are from a primary colon carcinoma; SW620 cells are from a metastatic recurrence. […] This was also paralleled by a drastic increase in LAMP1 levels compared to that in SW480 (data not shown).

SKNEP1 cells = test: DOXO response of Ewing sarcoma cell line; type: cell-based; settings: low-NEU1 cells
Description: as §1

RH41 cells = test: Doxorubicin exposure, apoptotic response (cleaved PARP immunoblot); type: cell-based, human; settings: parental RH41 cells, high NEU1
RH30 cells = test: Doxorubicin efflux assay; type: cell-based, human; settings: 3 μg/mL DOXO for 2 hours, then DOXO-free medium for 2 hours
Experimental: Cells were plated and maintained at 50% confluency. The next day, they were treated with medium containing 3 μg/mL DOXO for 2 hours. Treated cells were then washed 3 times with PBS and cultured in DOXO-free medium for an additional 2 hours, to allow efflux of the drug into fresh medium. The conditioned medium was then centrifuged at 1000 rpm […] for 5 minutes and a 500 μL aliquot was spun through an ULTRAFREE-MC 0.1 μm Eppendorf centrifugal filter (Millipore) to capture the effluxed drug. The filter was then placed on a microscopic slide and images of the red fluorescence filter were taken on a Nikon Cl microscope.

RH30^NEU1 cells = test: DOXO dose response, apoptotic response (cleaved PARP immunoblot); type: cell-based, human; settings: compared with unmodified controls
Experimental: (§2) Finally, we generated DOXO dose response curves in both parental cell lines and the modified lines to examine the differences in their apoptotic responses. Immunoblots of the cleaved poly (ADP-ribose) polymerase (PARP), a canonical apoptotic marker, were used for this purpose (data not shown).
(§3) RH30 cells were transduced with the pBABE-puro retroviral vector (AddGene), either unmodified or containing the human NEU1 cDNA. Transduced cells were selected with puromycin (2 μg/mL), according to the predetermined sensitivity of the cell line, and were maintained in 0.5 μg/mL selection medium. RH41 cells were transfected with a panel of NEU1 shRNA plasmids (RHS4533-NM000434, Open Biosystems) or the accompanying empty vector control. The cells were selected with puromycin and maintained under selection medium.

RH41^shNEU1 cells = test: as above; type: cell-based, human; settings: compared with corresponding unmodified cells
Experimental: as §2, §3

SMILES: COc1cccc2c1C(=O)c1c(O)c3c(c(O)c1C2=O)C[C@@](O)(C(=O)CO)C[C@@H]3O[C@H]1C[C@H](N)[C@H](O)[C@H](C)O1 [doxorubicin]
- response to DOXO (EW8 cells): sensitive
- response to DOXO (SKNEP1 cells): resistant
- response to doxorubicin (apoptosis) (RH41 cells): highly susceptible; also recorded: readily apoptosed
- efflux of DOXO into culture medium (red fluorescence) (RH30 cells): released from these cells
- apoptotic response to DOXO (RH30^NEU1 cells): more sensitive
- apoptotic response to DOXO (RH41^shNEU1 cells): more resistant to apoptosis
